Key:
mu opioid receptor (MOR) [1] = biological target: T1, mu opioid receptor (MOR) (Homo sapiens, UniProt P35372); assay: PathHunter β-arrestin recruitment assay, PAM mode with EC20 endomorphin-1; assay type: cell-based; settings: for inhibition of β-arrestin recruitment at a static concentration of 5 μM: printed in β-arr. EC50 column
Description: The effects of MOR PAMs and MOR SAMs on receptor activity were assayed using the PathHunter enzyme complementation assay technology (DiscoveRx, CA). A description of the technology employed is as follows.
Beta-Arrestin Pathway: The PathHunter β-arrestin assay monitors the activation of a GPCR in a homogenous, non-imaging assay format using a technology developed by DiscoveRx called Enzyme Fragment Complementation (EFC) with beta-galactosidase (β-Gal) as the functional reporter. […] EA is fused to β-Arrestin and ED is fused to the GPCR of interest. When the GPCR is activated and β-arrestin is recruited to the receptor, ED and EA complementation occurs, restoring β-gal activity, which is measured using chemiluminescent PathHunter Detection Reagents.
In this manner an EC50 for each test compound, and percent maximal response for each test compound, were determined for both the β-arrestin and cAMP pathways. Though the pharmacological effects of a given signal bias can be hypothesized (Raehal et al. (2011) Pharmacol. Rev. 63:1001-1019), it is not possible to know with certainty which bias ratio will be most advantageous in a clinical setting. […] Kenakin 2015a, supra. The information associated with the compounds detailed herein is the first large data set available for the prediction of ligand bias for an MOR PAM.

mu opioid receptor (MOR) [2] = biological target: T1, mu opioid receptor (MOR); assay: Hit Hunter cAMP signaling assay (adenylyl cyclase inhibition), PAM mode with EC20 endomorphin-1; assay type: cell-based
[3] = maximal response for β-arrestin recruitment
[4] = β-arrestin recruitment, read-out: β-arr. EC50
[5] = cAMP EC50, adenylyl cyclase inhibition
[6] = maximal response for adenylyl cyclase inhibition
[7] = adenylyl cyclase inhibition, read-out: cAMP EC50
[8] = read-out: cAMP EC50, adenylyl cyclase inhibition

T1 sequence (P35372 whole entry): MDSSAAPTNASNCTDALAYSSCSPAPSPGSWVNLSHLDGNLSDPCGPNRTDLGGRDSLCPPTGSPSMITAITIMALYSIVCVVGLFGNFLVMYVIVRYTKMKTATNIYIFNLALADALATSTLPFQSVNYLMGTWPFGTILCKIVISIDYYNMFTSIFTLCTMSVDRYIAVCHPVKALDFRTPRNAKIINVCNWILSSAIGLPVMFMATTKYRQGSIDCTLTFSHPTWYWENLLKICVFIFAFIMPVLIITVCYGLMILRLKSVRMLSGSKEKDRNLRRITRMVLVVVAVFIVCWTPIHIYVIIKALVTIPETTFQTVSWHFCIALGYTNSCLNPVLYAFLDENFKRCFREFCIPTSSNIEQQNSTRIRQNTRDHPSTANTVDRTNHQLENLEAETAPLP

Compound | β-arr Max. Resp. (mu opioid receptor (MOR) [1]; [3]) | EC50 (mu opioid receptor (MOR) [1]; [4]) [nM] | inhibition of β-arrestin recruitment at a static concentration of 5 μM (mu opioid receptor (MOR) [1]) | also measured
Fc1ccc(C2C(F)CCCN2c2nc(Cl)ncc2F)cc1Br (stereo not drawn) [compound 211] | F (F represents a maximal response of > 60%) | > 2100 |  | EC50 (mu opioid receptor (MOR) [2]; [5]): > 2100 nM; cAMP Max. Resp. (mu opioid receptor (MOR) [2]; [6]): E (E represents a maximal response of 40-60%)
COc1ncc(F)c(N2CCCCC2c2cccc(F)n2)n1 (stereo not drawn) [compound 272] | D (D represents a maximal response of < 40%) | > 2100 |  | EC50 (mu opioid receptor (MOR) [2]; [5]): > 2100 nM; cAMP Max. Resp. (mu opioid receptor (MOR) [2]; [6]): F (F represents a maximal response of > 60%)
Fc1ccc(C2CCCCN2Cc2ccnc(Cl)c2)cc1Cl (stereo not drawn) [compound 174] | F (F represents a maximal response of > 60%) | 700 to 2100 |  | EC50 (mu opioid receptor (MOR) [2]; [5]): 700 to 2100 nM; cAMP Max. Resp. (mu opioid receptor (MOR) [2]; [6]): E (E represents a maximal response of 40-60%)
O=S(=O)(c1cc(F)ccc1F)N1CCCC(F)C1c1ccc(F)c(Br)c1 (stereo not drawn) [Compound 38] |  | > 2100 |  | EC50 (mu opioid receptor (MOR) [2]; [7]): > 2100 nM
Fc1ccc(C2CCCCN2c2cccnc2N2CCOCC2)cc1Cl (stereo not drawn) [compound 479] |  | > 2100 |  | β-arr Max. Resp. (mu opioid receptor (MOR) [1]; maximal response, β-arrestin recruitment): F (F represents a maximal response of > 60%); EC50 (mu opioid receptor (MOR) [2]; [7]): > 2100 nM; cAMP Max. Resp. (mu opioid receptor (MOR) [2]; maximal response, adenylyl cyclase inhibition): D (D represents a maximal response of < 40%)
COc1ccc(C2COCCN2c2nc(Cl)ncc2F)cc1Br (racemic) [Compound 187] | F (F represents a maximal response of > 60%) | > 2100 |  | EC50 (mu opioid receptor (MOR) [2]; [7]): > 2100 nM; cAMP Max. Resp. (mu opioid receptor (MOR) [2]; [6]): E (E represents a maximal response of 40-60%)
O=S(=O)(c1ccc(Cl)cc1)N1CCCCC1c1ccc2c(c1)OCO2 (stereo not drawn) [compound 44] | F (F represents a maximal response of > 60%) | > 2100 |  | allosteric activity for β-arrestin recruitment (mu opioid receptor (MOR) [1]; EC20 endomorphin-1 concentration of 4.5 nM): moderate positive allosteric activity; signaling preference β-arrestin vs cAMP (mu opioid receptor (MOR) [1]; comparison of β-arrestin and cAMP assays): equivalent effects on β-arrestin recruitment and cAMP signaling; β-arr. Max Resp. (mu opioid receptor (MOR) [1]; maximal response for β-arrestin recruitment, Table 3): 99; EC50 (mu opioid receptor (MOR) [1]; β-arrestin recruitment, Table 3, read-out: β-arr. EC50): 5670 nM; allosteric activity for cAMP signaling (mu opioid receptor (MOR) [2]; EC20 endomorphin-1 concentration of 0.45 nM): moderate positive allosteric activity; EC50 (mu opioid receptor (MOR) [2]; adenylyl cyclase inhibition, Table 3, read-out: cAMP EC50): 3740 nM; EC50 (mu opioid receptor (MOR) [2]; [7]): > 2100 nM; cAMP Max. Resp. (mu opioid receptor (MOR) [2]; [6]): E (E represents a maximal response of 40-60%); cAMP Max Resp. (mu opioid receptor (MOR) [2]; maximal response for adenylyl cyclase inhibition, Table 3): 57
Fc1ccc(C2C3CCC(C3)N2c2nc(Cl)ncc2F)cc1Br (stereo not drawn) [compound 136] | F (F represents a maximal response of > 60%) | > 2100 |  | EC50 (mu opioid receptor (MOR) [2]; [5]): > 2100 nM; cAMP Max. Resp. (mu opioid receptor (MOR) [2]; [6]): D (D represents a maximal response of < 40%)
COc1ccc(C2CCCCN2S(=O)(=O)c2ccc(Cl)cc2)cc1Br (racemic) [compound 4] | F (F represents a maximal response of > 60%) | > 2100 |  | 
Fc1cnc(Cl)nc1N1CCCCC1c1cccc(Cl)n1 (stereo not drawn) [compound 276] | E (E represents a maximal response of 40-60%) |  |  | EC50 (mu opioid receptor (MOR) [1]; β-arr. EC50, β-arrestin recruitment): > 2100 nM; EC50 (mu opioid receptor (MOR) [2]): 700 to 2100 nM; cAMP Max. Resp. (mu opioid receptor (MOR) [2]; [6]): D (D represents a maximal response of < 40%)
Fc1cnc(Cl)nc1N1CCCCC1c1ccc(C(F)(F)F)nc1 (stereo not drawn) [compound 413] | D (D represents a maximal response of < 40%) | < 700 |  | EC50 (mu opioid receptor (MOR) [2]; [5]): < 700 nM; cAMP Max. Resp. (mu opioid receptor (MOR) [2]; [6]): D (D represents a maximal response of < 40%)
[2H]C1(c2ccc(F)c(Br)c2)C(F)CCCN1S(=O)(=O)c1ccccc1 (stereo not drawn) [Compound 30] |  |  | G (G represents < 50% inhibition of β-arrestin recruitment at a static concentration of 5 μM, for compounds that were not tested for adenylyl cyclase inhibition) | 
[2H]C1(c2ccc(F)c(Br)c2)C(F)CCCN1S(=O)(=O)Cc1ccc(Cl)c(Cl)c1 (stereo not drawn) [Compound 34] |  |  | G (G represents < 50% inhibition of β-arrestin recruitment at a static concentration of 5 μM, for compounds that were not tested for adenylyl cyclase inhibition) | 
COc1ccc(C2CCCN2S(=O)(=O)c2ccc(Cl)cc2)cc1Br (stereo not drawn) [compound 41] | F (F represents a maximal response of > 60%) | > 2100 |  | 
COc1ccc(C2CCN2S(=O)(=O)c2ccc(Cl)cc2)cc1Br (stereo not drawn) [compound 40] | D (D represents a maximal response of < 40%) | > 2100 |  | 
COc1ccc(C2N(S(=O)(=O)c3ccc(Cl)cc3)CCC2(F)F)cc1Br (stereo not drawn) [Compound 113] | F (F represents a maximal response of > 60%) | > 2100 |  | 
COc1ccc(C2C(F)CCN2S(=O)(=O)c2ccc(Cl)cc2)cc1Br (stereo not drawn) [Compound 115] | E (E represents a maximal response of 40-60%) | > 2100 |  | 

Compound | β-arr Max. Resp. (mu opioid receptor (MOR) [1]; [3]) | EC50 (mu opioid receptor (MOR) [1]; [4]) [nM] | inhibition of β-arrestin recruitment at a static concentration of 5 μM (mu opioid receptor (MOR) [1]) | also measured
[2H]C1(c2ccc(F)c(Br)c2)C(F)CCCN1S(=O)(=O)Cc1ccccc1Cl (stereo not drawn) [Compound 36] |  |  | G (G represents < 50% inhibition of β-arrestin recruitment at a static concentration of 5 μM, for compounds that were not tested for adenylyl cyclase inhibition) | 
Fc1cnc(Cl)nc1N1CCCC(F)C1c1cccc(C(F)(F)F)c1 (single isomer, unassigned) [compound 208] |  |  |  | EC50 (mu opioid receptor (MOR) [2]; [8]): 700 to 2100 nM
COc1ccc(C2CC(F)CN2S(=O)(=O)c2ccc(Cl)cc2)cc1Br (single isomer, unassigned) [Compound 112] |  |  | G (G represents < 50% inhibition of β-arrestin recruitment at a static concentration of 5 μM, for compounds that were not tested for adenylyl cyclase inhibition) | 
N#Cc1cccc(C2CCCCN2S(=O)(=O)c2ccc(Cl)cc2)n1 (stereo not drawn) [compound 47] |  |  | G (G represents < 50% inhibition of β-arrestin recruitment at a static concentration of 5 μM, for compounds that were not tested for adenylyl cyclase inhibition) | 
[2H]C1(c2ccc(F)c(Br)c2)C(F)CCCN1S(=O)(=O)c1ccc(OC)cc1 (stereo not drawn) [Compound 39] |  |  | G (G represents < 50% inhibition of β-arrestin recruitment at a static concentration of 5 μM, for compounds that were not tested for adenylyl cyclase inhibition) | 
COc1ccc(C2C(C(F)(F)F)CCN2S(=O)(=O)c2ccc(Cl)cc2)cc1Br (single isomer, unassigned) [Compound 117] | F (F represents a maximal response of > 60%) | > 2100 |  | 
COc1ccc(C2CC(F)CN2S(=O)(=O)c2ccc(Cl)cc2)cc1Br (single isomer, unassigned) [Compound 114] | D (D represents a maximal response of < 40%) | > 2100 |  | 
COc1ccc(C2CC(C(F)(F)F)CN2S(=O)(=O)c2ccc(Cl)cc2)cc1Br (single isomer, unassigned) [Compound 111] | F (F represents a maximal response of > 60%) | > 2100 |  | 
[2H]C1(c2ccc(F)c(Br)c2)C(F)CCCN1S(=O)(=O)c1ccc2ccccc2c1 (stereo not drawn) [Compound 31] |  |  | G (G represents < 50% inhibition of β-arrestin recruitment at a static concentration of 5 μM, for compounds that were not tested for adenylyl cyclase inhibition) | 
COc1ccc(C2N(S(=O)(=O)c3ccc(Cl)cc3)CCC2(F)F)cc1Br (single isomer, unassigned) [Compound 116] | F (F represents a maximal response of > 60%) | > 2100 |  | 
O=S(=O)(c1ccccc1)N1CCCCC1c1cccc(C(F)(F)F)c1 (stereo not drawn) [Compound 19] |  |  | G (G represents < 50% inhibition of β-arrestin recruitment at a static concentration of 5 μM, for compounds that were not tested for adenylyl cyclase inhibition) | 
O=S(=O)(c1ccc2ccccc2c1)N1CCCCC1c1cccc(C(F)(F)F)c1 (stereo not drawn) [Compound 20] |  |  | G (G represents < 50% inhibition of β-arrestin recruitment at a static concentration of 5 μM, for compounds that were not tested for adenylyl cyclase inhibition) | 
Fc1cnc(Cl)nc1N1CCCC(F)C1c1cccc(C(F)(F)F)c1 (single isomer, unassigned) [compound 209] |  |  |  | EC50 (mu opioid receptor (MOR) [2]; [8]): 700 to 2100 nM
FC(F)(F)c1cccc(C2CCCCN2Cc2ccc(Cl)cc2)c1 (stereo not drawn) [compound 140] |  |  | G (G represents < 50% inhibition of β-arrestin recruitment at a static concentration of 5 μM, for compounds that were not tested for adenylyl cyclase inhibition) | 
O=S(=O)(c1ccc(Cl)cc1)N1CCCCC1c1ccccn1 (stereo not drawn) [compound 45] |  |  | G (G represents < 50% inhibition of β-arrestin recruitment at a static concentration of 5 μM, for compounds that were not tested for adenylyl cyclase inhibition) | 
[2H]C1(c2ccc(F)c(Br)c2)C(F)CCCN1S(=O)(=O)Cc1ccccc1 (stereo not drawn) [Compound 35] |  |  | G (G represents < 50% inhibition of β-arrestin recruitment at a static concentration of 5 μM, for compounds that were not tested for adenylyl cyclase inhibition) | 
Cc1cccc(C2CCCCN2S(=O)(=O)c2ccc(Cl)cc2)n1 (stereo not drawn) [compound 46] |  |  | G (G represents < 50% inhibition of β-arrestin recruitment at a static concentration of 5 μM, for compounds that were not tested for adenylyl cyclase inhibition) | 

From US11071731B2, “Allosteric modulators of the mu opioid receptor” (Chiromics, LLC, priority 2017, dated 2021)
